Paper PMC8409943, “Study on mechanism of low bioavailability of black tea theaflavins by using Caco-2 cell monolayer” (Drug Delivery, 2021)
Read-outs that look alike come from different tables or passages of the source.

How the values were obtained:
[1] = system: Caco-2 cells; assay: Cytotoxicity study by CCK-8 method; type: cell-based, Human; conditions: 24 h
Protocol: Standard stock solutions (1000 μM) of each theaflavin were prepared in 0.1% dimethyl sulfoxide (DMSO) in deionized water, and diluted with fresh DMEM to 100, 200, 300, 400, and 500 µmol/L respectively. Each inhibitor was prepared as instructions. The cytotoxicity of theaflavins and four inhibitors of multidrug resistant associated proteins to Caco-2 cells was examined by CCK-8 method (Song et al., [2014]). Briefly, Caco-2 cells were inoculated onto 96-well microtiter plates at a density of 1 × 10^4 cells per well. After incubation at 37 °C for 24 h, cells were incubated for another 24 h with different concentrations of theaflavins, followed by adding 10 μL CCK-8 solution and 1 h incubation at 37 °C. The absorbance (OD) value was determined at 450 nm using a microplate reader (ELX-800, Bio-Tek Instruments Inc., Winooski, USA). Four inhibitors were used in this study: Vep, inhibitor of P-gp; CsA, inhibitor and substrate of P-gp; MK-571, inhibitor of MRP1, MRP2 and MRP3; FTC, inhibitor of BCRP (Silbermann et al., [1989]; König et al., [1999]; Renes et al., [1999]; Ali et al., [2017]). The cytotoxicity of Vep, CsA, MK-571 or FTC was also determined by CCK-8 assay. […] To determine the effects of inhibitors on the cytotoxicity of theaflavins, cells were incubated with both different theaflavin monomers (100, 200, 300, 400, and 500 μM) and different inhibitors. IC50, the half inhibitory concentration, was calculated from the cell viability. The cell viability was calculated by the following equation: (1) Cell viability (%)=(ODsample− ODblank)/(ODcontrol− ODblank)×100% where ODsample is the absorbance value of cell + sample + complete medium; ODblank, the absorbance value of complete medium; ODcontrol, the absorbance value of cell + complete medium.

[2] = system: Caco-2 cells; assay: Intracellular accumulation of theaflavin monomers; conditions: 200 μM theaflavins, 2 h incubation, 37 °C
Protocol: Caco-2 cells were seeded at a density of 8 × 10^4 cells per well in 6-well plates (Ni et al., [2020]). After differentiation over a period of 21 days, cells were incubated with 2.0 mL of 200 μM theaflavins at 37 °C. After 2 h incubation, phosphate buffer was added to wash cells in the plate. Then, cell lysates were prepared with RIPA lysis buffer containing 1 mM PMSF as a protease inhibitor and centrifugated at 12,000 rpm for 30 min. Total protein contents were quantified using a BCA estimation kit according to the manufacturer’s instructions (Beyotime). Theaflavins were quantified by HPLC analysis and the intracellular accumulation was expressed as µg theaflavin/mg protein.
Theaflavins were characterized by high performance liquid chromatography (HPLC, Agilent 1100VL, Agilent Technologies Inc., CA, USA). Briefly, samples were extracted with 70% methanol, centrifuged at 685 × g for 10 min, and filtered through a 0.45 μm membrane (Nylon 66). […] Samples were eluted with a gradient of solvent A (100 mL water with 9 mL acetonitrile and 2 mL acetic acid) and B (100 mL acetonitrile with 17.8 mL water and 2 mL acetic acid) as follows: 0–5 min, 95% A; 5–10 min, 90% A; 10–20 min, 70% A; 20–25 min, 65% A; 25–30 min, 70% A; 30–35 min, 100% A. Theaflavins were detected using an ultraviolet detector at a wavelength of 278 nm.

[3] = Stability (recovery rate) of theaflavins in HBSS and DMEM in the absence of cells
Protocol: Standard stock solutions of each theaflavin were diluted with HBSS and DMEM respectively, obtaining final test solutions of 200 μM. The recovery rate of theaflavins in HBSS and in DMEM, in the absence of cells, was analyzed by HPLC after incubation at 37 °C for 0.5, 1, 2, 3, 4, 8, 12, and 24 hours, respectively. The recovery rate was used to measure the stability and calculated as follows: (2) Recovery rate=Ct/C0× 100% where Ct is the final concentration at different incubation time (μM); C0, the initial concentration (μM).
Theaflavins were characterized by high performance liquid chromatography (HPLC, Agilent 1100VL, Agilent Technologies Inc., CA, USA). Briefly, samples were extracted with 70% methanol, centrifuged at 685 × g for 10 min, and filtered through a 0.45 μm membrane (Nylon 66). The separation was performed by an ODS reversed-phase column (4.6 mm i.d.×250 mm, SB-C18, Agilent Technologies Inc., CA, USA) at a flow rate of 0.7 mL/min. Chromatographic conditions were slightly modified according to China National Standard (GB/T 30483-2013, GAQSIQ, P. R. China, 2013). Samples were eluted with a gradient of solvent A (100 mL water with 9 mL acetonitrile and 2 mL acetic acid) and B (100 mL acetonitrile with 17.8 mL water and 2 mL acetic acid) as follows: 0–5 min, 95% A; 5–10 min, 90% A; 10–20 min, 70% A; 20–25 min, 65% A; 25–30 min, 70% A; 30–35 min, 100% A. Theaflavins were detected using an ultraviolet detector at a wavelength of 278 nm.

[4] = system: MRP2; assay: Quantitative real-time PCR, mRNA level of MRP2; type: cell-based, Human; conditions: Caco-2 cells, 200 μM, 2 h, vs control
Protocol: Cell culture and treatment were performed as described above in 2.6. Total RNA was extracted from Caco-2 cells by the cell RNA extraction kit, and then reverse-transcribed by the cDNA synthesis kit. Gene amplification and quantitative detection were performed as previously described (Ai et al., [2019]). Target mRNA levels were normalized to β-actin mRNA levels. Data were calculated by the 2^−ΔΔCT method.

[5] = Transepithelial transport of theaflavins across Caco-2 cell monolayers, with or without efflux transporter inhibitors; type: in vitro ADME, Human; conditions: human; for recovery at 2 h, 200 μM: Caco-2, Caco-2 monolayers, after 2 h incubation; for efflux ratio at 2 h, 200 μM / Papp A→B at 2 h, 200 μM / Papp B→A at 2 h, 200 μM: 2 h incubation
Protocol: (§1) For transport studies, Caco-2 cells were seeded at a density of 3 × 10^5 cells per well in Transwell® inserts (polycarbonate membrane, 24 mm i.d., 0.4 μm pore size, Corning Costar Corp., NY, USA) in 6-well plates (Zhang et al., [2004]). […] The inserts were washed twice with HBSS buffer and equilibrated at 37 °C for 30 min. Standard stock solutions of each theaflavin were diluted to 200 μM with HBSS. For absorptive transport, theaflavins in 1.5 mL HBSS was added into the AP side and 2.6 mL HBSS was added into the BL side of all inserts. For secretory transport, 1.5 mL HBSS and 2.6 mL theaflavins in HBSS were added into AP side and BL side, respectively. Samples were collected from the receiving chamber after 0.5, 1, 2, 3, or 4 h incubation and then were lyophilized at −110 °C in a CoolSafe freeze dryer (LaboGene ApS, Bjarkesvej, Denmark) for HPLC analysis. The recovery rate of theaflavins in the transport was calculated from the above Equation (2).
(§2) Prior to transport inhibition experiment, cells were preincubated for 30 min with 100 μM Vep, 100 μM CsA, 100 μM MK-571, or 10 μM FTC in both sides (Vaidyanathan & Walle, [2001]; Wang et al., [2008]). Then, the absorptive and secretory experiments were performed in the presence of inhibitors as described above. Samples were collected from the receiving chamber after 2 h incubation and then were lyophilized at −110 °C for HPLC analysis.
(§3) The apparent permeability coefficient (Papp, cm/s) was calculated as follows: (3) Papp= dQ/dt×V/(A×C0) where dQ/dt is the variation in concentration on the receiving side over time (μM/s); V, the volume of the solution collected from the receiving chamber (cm^3); A, the area of the membrane (4.67 cm^2); C0, the initial concentration of theaflavins in the donor chamber (μM).
(§4) The efflux ratio was calculated as follows: (4) Efflux ratio= Papp(BL−AP)/Papp(AP−BL) where Papp, apparent permeability coefficient; AP-BL, apical to basolateral transport; BL-AP, basolateral to apical transport.

[6] = system: Caco-2 cell monolayers; assay: as above; type: in vitro ADME, Human; conditions: absorptive transport, 2 h
Protocol: as §1, §2, §3, §4

[7] = system: Caco-2 monolayers; assay: HPLC-MS/MS identification of metabolites in the absorptive transport of Caco-2 monolayers; type: in vitro ADME, Human; conditions: 200 µM, 2 h, AP side or BL side of Caco-2 monolayers
Protocol: TF3G, TF3’G and TFDG were dissolved in DMSO (≤0.5%), and then, diluted with HBSS. Caco-2 cells were incubated with 200 µM TF3G, TF3’G and TFDG at 37 °C for 2 h. Samples collected from both AP side and BL side were measured by HPLC with MS detection, and the metabolites were determined in terms of the standard TF, TF3G, TF3’G, TFDG, and gallic acid (Table S2).

Contents of theaflavins absorbed in Caco-2 cells [2]: -
degraded due to the structural instability ([3]; 2 h): 9.3%
Recovery rate in DMEM ([3]; pH 6.0 DMEM without cells, 200 μM, 37 °C, 2 h incubation): < 45%
recovery at 2 h, 200 μM ([5]; apical to basolateral, read-out: recovery of theaflavins in absorptive transport): 39.8%
recovery at 2 h, 200 μM ([5]; basolateral to apical, read-out: recovery of theaflavins in secretory transport): 48.9%
efflux ratio at 2 h, 200 μM ([5]; Caco-2, Papp(BL−AP)/Papp(AP−BL), Ctrl (no inhibitor)): 1.24 ± 0.09
Papp A→B at 2 h, 200 μM ([5]; Caco-2, absorptive transport, 200 μM theaflavin in HBSS, Ctrl (no inhibitor)): 0.277 ± 0.009 ×10⁻⁶ cm/s
Papp B→A at 2 h, 200 μM ([5]; Caco-2, secretory transport, 200 μM theaflavin in HBSS, Ctrl (no inhibitor)): 0.342 ± 0.014 ×10⁻⁶ cm/s
efflux ratio at 2 h, 200 μM ([5]; Caco-2, with 10 μM FTC (BCRP inhibitor), + 10 μM FTC (BCRP inhibitor)): 1.05 ± 0.08
Papp A→B at 2 h, 200 μM ([5]; Caco-2, with 10 μM FTC (BCRP inhibitor), absorptive transport, + 10 μM FTC (BCRP inhibitor)): 0.31 ± 0.01 ×10⁻⁶ cm/s
Papp B→A at 2 h, 200 μM ([5]; Caco-2, with 10 μM FTC (BCRP inhibitor), secretory transport, + 10 μM FTC (BCRP inhibitor)): 0.324 ± 0.013 ×10⁻⁶ cm/s
efflux ratio at 2 h, 200 μM ([5]; Caco-2, with 100 μM CsA (P-gp inhibitor and substrate), + 100 μM CsA (P-gp inhibitor and substrate)): 0.62 ± 0.05
Papp A→B at 2 h, 200 μM ([5]; Caco-2, with 100 μM CsA (P-gp inhibitor and substrate), absorptive transport, + 100 μM CsA (P-gp inhibitor and substrate)): 0.565 ± 0.019 ×10⁻⁶ cm/s
Papp B→A at 2 h, 200 μM ([5]; Caco-2, with 100 μM CsA (P-gp inhibitor and substrate), secretory transport, + 100 μM CsA (P-gp inhibitor and substrate)): 0.348 ± 0.014 ×10⁻⁶ cm/s
efflux ratio at 2 h, 200 μM ([5]; Caco-2, with 100 μM Vep (P-gp inhibitor), + 100 μM Vep (P-gp inhibitor)): 0.73 ± 0.05
Papp A→B at 2 h, 200 μM ([5]; Caco-2, with 100 μM Vep (P-gp inhibitor), absorptive transport, + 100 μM Vep (P-gp inhibitor)): 0.415 ± 0.014 ×10⁻⁶ cm/s
Papp B→A at 2 h, 200 μM ([5]; Caco-2, with 100 μM Vep (P-gp inhibitor), secretory transport, + 100 μM Vep (P-gp inhibitor)): 0.301 ± 0.012 ×10⁻⁶ cm/s
increase of the influx ([6]; with CsA vs control): 2.0 times
fold increase in the influx ([6]; with MK-571 vs control): 1.47 fold
fold increase in the influx ([6]; with verapamil vs control): 1.50 fold
conjugated metabolites (glucuronidated, sulfated and methylated) [7]: not detected
Compound: O=c1c(O)cc([C@H]2Oc3cc(O)cc(O)c3C[C@H]2O)cc2c([C@H]3Oc4cc(O)cc(O)c4C[C@H]3O)cc(O)c(O)c12 [TF, theaflavin]
IC50 ([1]; + CsA): 584 ± 26.9 µM
IC50 ([1]; + FTC): 492 ± 34.2 µM
IC50 ([1]; + MK-571): 463 ± 80.8 µM
IC50 ([1]; + VEP): 517 ± 66.2 µM
IC50 ([1]; Homo sapiens, Ctrl (no inhibitor)): 681 ± 19.2 µM
decrease of mRNA (transcriptional) level of MRP2 [4]: 38.73%
